Measurements from US8067589B2, “Heterocyclic compounds useful in treating diseases and conditions” (Pfizer Inc, priority 2007, dated 2011).

These molecules were tested against human recombinant H-PGDS (Homo sapiens, UniProt O60760) (assay: Fluoresecence Intensity h-PGDSTBA Enzyme Assay). Conditions: 5.0 μM PGH2, 2.5 mM L-Glutathione, 10 min preincubation, 4-parameter fit, highest inhibitor concentration typically 1 μM.
human recombinant H-PGDS, sequence (O60760 whole entry): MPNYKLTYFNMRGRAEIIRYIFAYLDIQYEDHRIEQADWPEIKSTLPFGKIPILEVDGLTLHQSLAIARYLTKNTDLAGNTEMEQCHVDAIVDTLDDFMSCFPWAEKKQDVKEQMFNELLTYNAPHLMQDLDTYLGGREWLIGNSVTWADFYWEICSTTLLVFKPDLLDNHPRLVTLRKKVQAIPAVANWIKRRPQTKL
Work on “2-Phenyl-N-[1-(2,2,2- trifluoroethyl) piperidin-4-yl] pyrimidine-5- carboxamide [Example 9]” yielded an IC50 of 0.275 nM.

Same assay, conditions: IC50, 5.0 μM PGH2, 2.5 mM L-Glutathione, 10 min preincubation, 4-parameter fit, highest inhibitor concentration typically 1 μM
Work on `CC(C)(C)OC(=O)N1C[C@H](O)[C@H](NC(=O)c2cnc(-c3cccc(F)c3)nc2)C1` (relative stereo) [Example 94, cis-tert-Butyl 3-(2-(3-fluorophenyl)pyrimidine-5-carboxamido)-4-hydroxypyrrolidine-1-carboxylate] yielded an IC50 of 1.41 nM. `N#Cc1ccccc1C(=O)c1cccnc1N1C[C@H](O)[C@H](NC(=O)c2cnc(-c3cccc(F)c3)nc2)C1` (relative stereo) [Example 97, Cis-N-{1-[3-(2-Cyanobenzoyl)pyridin-2-yl]-4-hydroxypyrrolidin-3-yl}-2-(3-fluorophenyl)pyrimidine-5-carboxamide] was tested, and the IC50 was 3.83 nM. In the case of `O=C(N[C@@H]1CN(c2ncccn2)C[C@@H]1O)c1cnc(-c2cccc(F)c2)nc1` (relative stereo) [Example 98, Cis-2-(3-Fluorophenyl)-N-[4-hydroxy-1-pyrimidin-2-ylpyrrolidin-3-yl]pyrimidine-5-carboxamide], the IC50 is reported as 1.82 nM. With `NC(=O)c1cccnc1N1C[C@H](O)[C@H](NC(=O)c2cnc(-c3cccc(F)c3)nc2)C1` (relative stereo) [Example 99, Cis-N-{1-[3-(Aminocarbonyl)pyridin-2-yl]-4-hydroxypyrrolidin-3-yl}-2-(3-fluorophenyl)pyrimidine-5-carboxamide] the IC50 was 2.65 nM. In the case of `N#Cc1ccc(C(F)(F)F)nc1N1C[C@H](O)[C@H](NC(=O)c2cnc(-c3cccc(F)c3)nc2)C1` (relative stereo) [Example 100, Cis-N-{1-[3-Cyano-6-(trifluoromethyl)pyridin-2-yl]-4-hydroxypyrrolidin-3-yl}-2-(3-fluorophenyl)pyrimidine-5-carboxamide], the IC50 is reported as 4.47 nM. `O=C(NC1CCN(c2ncc3c(n2)CCOC3)C1)c1cnc(-c2cccc(F)c2)nc1` (single isomer, unassigned) [Example 81a, N-(1-(7,8-Dihydro-5H-pyrano[4,3-d]pyrimidin-2-yl)pyrrolidin-3-yl)-2-(3-fluorophenyl)pyrimidine-5-carboxamide] showed an IC50 of 0.27 nM. For `O=C(NC1CCN(c2ncc3c(n2)CCOC3)C1)c1cnc(-c2cccc(F)c2)nc1` (single isomer, unassigned) [Example 81b, N-(1-(7,8-Dihydro-5H-pyrano[4,3-d]pyrimidin-2-yl)pyrrolidin-3-yl)-2-(3-fluorophenyl)pyrimidine-5-carboxamide], the IC50 was 0.46 nM. With `CCOC(=O)N1CCC(NC(=O)c2cnc(-c3cccc(F)c3)nc2)C1` (single isomer, unassigned) [Example 82a, Ethyl 3-(2-(3-fluorophenyl)pyrimidine-5-carboxamido)pyrrolidine-1-carboxylate] the IC50 was 1.92 nM. In the case of `CCOC(=O)N1CCC(NC(=O)c2cnc(-c3cccc(F)c3)nc2)C1` (single isomer, unassigned) [Example 82b, Ethyl 3-(2-(3-fluorophenyl)pyrimidine-5-carboxamido)pyrrolidine-1-carboxylate], the IC50 is reported as 0.58 nM. Work on `Cc1nc(-c2ccccc2)ncc1C(=O)NC1CCN(C(C)C)CC1` [Example 1, N-(1-Isopropylpiperidin-4-yl)-4-methyl-2-phenylpyrimidine-5-carboxamide] yielded an IC50 of 162 nM. In the case of `Cc1nc(-c2ccccc2)ncc1C(=O)NC1CCN(Cc2ccccc2)CC1` [Example 2, N-(1-Benzylpiperidin-4-yl)-4-methyl-2-phenylpyrimidine-5-carboxamide], the IC50 is reported as 67.4 nM. In the case of `Cc1nc(-c2ccccc2)ncc1C(=O)NC1CCN(Cc2ccccn2)CC1` [Example 3, 4-Methyl-2-phenyl-N-[1-(pyridin-2-ylmethyl)piperidin-4-yl]pyrimidine-5-carboxamide], the IC50 is reported as 14.1 nM. With `Cc1nc(-c2ccccc2)ncc1C(=O)NC1CCN(C)CC1` [Example 4, 4-Methyl-N-(1-methylpiperid-4-yl)-2-phenylpyrimidine-5-carboxamide] the IC50 was 302 nM. `CCCC(=O)N1CCC(NC(=O)c2cnc(-c3ccccc3)nc2C)CC1` [Example 5, N-(1-Butyrylpiperidin-4-yl)-4-methyl-2-phenylpyrimidine-5-carboxamide] gave an IC50 of 8.02 nM. Work on `CCOC(=O)N1CCC(NC(=O)c2cnc(-c3ccccc3)nc2C)CC1` [Example 6, Ethyl 4-{[(4-methyl-2-phenylpyrimidin-5-yl)carbonyl]amino)} piperidine-1-carboxylate] yielded an IC50 of 6.54 nM. In the case of `Cc1nc(-c2ccccc2)ncc1C(=O)NC1CCN(CC2CCOCC2)CC1` [Example 7, 4-Methyl-2-phenyl-N-[1-(tetrahydro-2H-pyran-4-ylmethyl)piperidin-4-yl] pyrimidine-5-carboxamide], the IC50 is reported as 30.4 nM. With `O=C(NC1CCN(Cc2ccccn2)CC1)c1cnc(-c2ccccc2)nc1` [Example 8, 2-Phenyl-N-[1-(pyridin-2-ylmethyl)piperidin-4-yl] pyrimidine-5-carboxamide] the IC50 was 0.461 nM. `CCCN1CCC(NC(=O)c2cnc(-c3ccccc3)nc2)CC1` [Example 10, 2-Phenyl-N-(1-propylpiperidin-4-yl) pyrimidine-5-carboxamide] showed an IC50 of 2 nM. With `CC(C)CN1CCC(NC(=O)c2cnc(-c3ccccc3)nc2)CC1` [Example 11, N-(1-Isobutylpiperidin-4-yl)-2-phenyl-pyrimidine-5-carboxamide] the IC50 was 0.381 nM. `O=C(NC1CCN(Cc2ccccc2)CC1)c1cnc(-c2ccccc2)nc1` [Example 12, N-(1-Benzylpiperidin-4-yl)-2-phenylpyrimidine-5-carboxamide] was tested, and the IC50 was 0.428 nM. In the case of `CC(C)N1CCC(NC(=O)c2cnc(-c3ccccc3)nc2)CC1` [Example 13, N-(1-Isopropylpiperidin-4-yl)-2-phenyl-pyrimidine-5-carboxamide], the IC50 is reported as 6.34 nM. Molecule `COc1cccc(OC)c1CN1CCC(NC(=O)c2cnc(-c3ccccc3)nc2)CC1` [Example 14, N-[1-(2,6-Dimethoxybenzyl)piperidin-4-yl]-2-phenylpyrimidine-5-carboxamide] has an IC50 of 0.483 nM. `CC(C)CN1CCC(NC(=O)c2cnc(-c3ccccc3)nc2N)CC1` [Example 15, 4-Amino-N-(1-isobutylpiperidin-4-yl)-2-phenyl-pyrimidine-5-carboxamide] was tested, and the IC50 was ≥ 1000 nM. `CC(C)N1CCC(NC(=O)c2cnc(-c3ccccc3)nc2N)CC1` [Example 16, 4-Amino-N-(1-isopropylpiperidin-4-yl)-2-phenyl-pyrimidine-5-carboxamide] gave an IC50 of 219 nM. Work on `COc1cccc(OC)c1CN1CCC(NC(=O)c2cnc(-c3ccccc3)nc2N)CC1` [Example 17, 4-Amino-N-[1-(2,6-dimethoxybenzyl)piperidin-4-yl]-2-phenylpyrimidine-5-carboxamide] yielded an IC50 of 19.3 nM. `Nc1nc(-c2ccccc2)ncc1C(=O)NC1CCN(Cc2ccccn2)CC1` [Example 18, 4-Amino-2-phenyl-N-[1-(pyridin-2-ylmethyl)piperidin-4-yl]pyrimidine-5-carboxamide] showed an IC50 of 16.4 nM. With `O=C(NC1CCN(Cc2ccccc2)CC1)c1cnc(-c2ccccc2)nc1O` [Example 19, N-(1-Benzylpiperidin-4-yl)-4-hydroxy-2-phenylpyrimidine-5-carboxamide] the IC50 was ≥ 1000 nM. With `CC(C)(C)OC(=O)N1CCC(NC(=O)c2cnc(-c3ccccc3)nc2O)CC1` [Example 20, tert-Butyl 4-{[(4-hydroxy-2-phenyl-pyrimidin-5-yl)carbonyl]amino}piperidine-1-carboxylate] the IC50 was ≥ 1000 nM. `O=C(NC1CCN(Cc2ccccn2)CC1)c1cnc(-c2ccccc2)nc1O` [Example 21, 4-Hydroxy-2-phenyl-N-[1-(pyridin-2-ylmethyl)piperidin-4-yl]pyrimidine-5-carboxamide] gave an IC50 of 992 nM. For `O=C(NC1CCN(CC(F)(F)F)CC1)c1cnc(-c2ccccc2)nc1O` [Example 22, 4-Hydroxy-2-phenyl-N-[1-(2,2,2-trifluoroethyl)piperidin-4-yl] pyrimidine-5-carboxamide], the IC50 was ≥ 1000 nM. With `COc1cccc(OC)c1CN1CCC(NC(=O)c2cnc(-c3ccccc3)nc2O)CC1` [Example 23, N-[1-(2,6-Dimethoxybenzyl)piperidin-4-yl]-4-hydroxy-2-phenyl-pyrimidine-5-carboxamide] the IC50 was ≥ 1000 nM. With `CC(C)N1CCC(NC(=O)c2cnc(-c3ccccc3)nc2O)CC1` [Example 24, 4-Hydroxy-N-(1-isopropylpiperidin-4-yl)-2-phenyl pyrimidine-5-carboxamide] the IC50 was ≥ 1000 nM. `CNC(=O)N1CCC(NC(=O)c2cnc(-c3cccc(F)c3)nc2)CC1` [Example 25, 2-(3-Fluorophenyl)-N-{1-[(methylamino)carbonyl]piperidin-4-yl}pyrimidine-5-carboxamide] showed an IC50 of 0.373 nM. For `O=C(NC1CCN(c2cccnn2)CC1)c1cnc(-c2cccc(F)c2)nc1` [Example 26, 2-(3-Fluorophenyl)-N-(1-pyridazin-3-ylpiperidin-4-yl)pyrimidine-5-carboxamide], the IC50 was 0.136 nM. For `O=C(NC1CCN(CC(F)(F)F)CC1)c1cnc(-c2cccc(F)c2)nc1` [Example 27, 2-(3-Fluorophenyl)-N-[1-(2,2,2-trifluoroethyl)piperidin-4-yl]pyrimidine-5-carboxamide], the IC50 was 0.166 nM. `N#Cc1ccc(OCC(c2ccccc2)N2CCC(NC(=O)c3cnc(-c4cccc(F)c4)nc3)CC2)cc1F` (stereo not drawn) [Example 28, N-{1-[2-(4-Cyano-3-fluorophenoxy)-1-phenylethyl]piperidin-4-yl}-2-(3-fluorophenyl)pyrimidine-5-carboxamide] gave an IC50 of 4.45 nM. For `O=C(NC1CCN(C(COc2c(F)cccc2Cl)c2ccccc2)CC1)c1cnc(-c2cccc(F)c2)nc1` (stereo not drawn) [Example 29, N-{1-[2-(2-Chloro-6-fluorophenoxy)-1-phenylethyl]piperidin-4-yl}-2-(3-fluorophenyl)pyrimidine-5-carboxamide], the IC50 was 11.4 nM. Molecule `O=C(NC1CCN(C(COc2c(F)cccc2F)c2ccccc2)CC1)c1cnc(-c2cccc(F)c2)nc1` (stereo not drawn) [Example 30, N-{1-[2-(2,6-Difluorophenoxy)-1-phenylethyl]piperidin-4-yl}-2-(3-fluorophenyl)pyrimidine-5-carboxamide] has an IC50 of 6.55 nM.
